These results are taken from paper PMC8122956, “Development of a Robust High-Throughput Screening Platform for Inhibitors of the Striatal-Enriched Tyrosine Phosphatase (STEP)” (International Journal of Molecular Sciences, 2021).

Each structure is given as a SMILES string.

One experiment has as its target T1, full-length human STEP46 (Homo sapiens, UniProt P54829).
T1 construct: Codon-optimized human full-length STEP46 cDNA was synthesized; His tag (pET-15b) (N); made in house; host or cells: E. coli BL21 (DE3)
T1 sequence (P54829 173-541 isoform P54829-3 limits assumed): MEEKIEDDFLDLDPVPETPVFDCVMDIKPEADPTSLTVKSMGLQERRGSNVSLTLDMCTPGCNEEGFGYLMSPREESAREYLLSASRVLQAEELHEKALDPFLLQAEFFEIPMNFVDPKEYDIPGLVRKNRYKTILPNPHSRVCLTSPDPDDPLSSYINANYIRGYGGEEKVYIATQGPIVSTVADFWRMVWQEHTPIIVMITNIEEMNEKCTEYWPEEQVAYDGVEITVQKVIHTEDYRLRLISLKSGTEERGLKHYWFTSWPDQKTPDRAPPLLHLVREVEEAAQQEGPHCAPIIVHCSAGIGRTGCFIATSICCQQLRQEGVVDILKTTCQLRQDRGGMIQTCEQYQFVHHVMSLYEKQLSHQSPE
Put plainly: STEP46 biochemical inhibition assay (DiFMUP phosphatase fluorescence intensity assay). The conditions noted are these: powder-confirmed hits, 10-pt dose-response, 0.5 nM STEP46, DiFMUP 3 μM, 20 min preincubation, pH 6.0, RT. The text has this: Employing the established STEP46 DiFMUP assay to determine enzymatic activity, we tested the 72 confirmed hits in 10-pt dose-response biochemical inhibition experiments. […] This rate of biochemically active compounds from confirmed PTS hits was in agreement with our prior experience from a similar PTS screening campaign against the SHP2 phosphatase (unpublished data). Next, we obtained commercial dry powders of the 17 biochemically active hits to confirm their activity from pure, fresh material. Powders were quality controlled using standard ^1H-NMR and LC-MS methods and repurified in cases where purity was determined to be below 95%. Pure powders were then retested in 10-pt dose-response STEP46 inhibition assays. Activity could be confirmed for 10 of the 17 powders.
(§1) Hit compounds were tested at room temperature (RT) in a 384-well plate format standard phosphatase fluorescence intensity assay using DiFMUP as a substrate and a total reaction volume of 25 μL. Compounds or vehicle (DMSO) were spotted in triplicate into a black Greiner FLUOTRAC 200 384-well microplate for a 10-point dose-response assay using the Echo 555 liquid handler. PTP working solutions were prepared at a 0.625 nM concentration (for a final concentration of 0.5 nM) in buffer containing 50 mM Bis-Tris pH 6.0, 50 mM NaCl, 5 mM DTT, and 0.01% Tween 20. DiFMUP working solutions at 5X final concentration were prepared in 50 mM Bis-Tris pH 6.0, 50 mM NaCl, and 0.01% Tween 20. PTP working solution (20 μL) was dispensed into the microplate and incubated with compound for 20 min at RT. […] The reaction was initiated by addition of 5 μL DiFMUP working solutions. Fluorescence intensity was measured in a kinetic mode as described above. IC50 values were calculated from the corrected initial rates by nonlinear regression using the program GraphPad Prism (version 8, GraphPad Software, Inc., San Diego, CA, USA).

Experiment [1] deals with T2, Human PTP1B catalytic domain (1-300) (Homo sapiens, UniProt P18031).
T2 construct: Human PTP1B catalytic domain (1–300) was cloned into PET-15b; His tag (pET-15b) (N); made in house; host or cells: E. coli (as for STEP46, BL21 (DE3))
T2 sequence (P18031 1-300): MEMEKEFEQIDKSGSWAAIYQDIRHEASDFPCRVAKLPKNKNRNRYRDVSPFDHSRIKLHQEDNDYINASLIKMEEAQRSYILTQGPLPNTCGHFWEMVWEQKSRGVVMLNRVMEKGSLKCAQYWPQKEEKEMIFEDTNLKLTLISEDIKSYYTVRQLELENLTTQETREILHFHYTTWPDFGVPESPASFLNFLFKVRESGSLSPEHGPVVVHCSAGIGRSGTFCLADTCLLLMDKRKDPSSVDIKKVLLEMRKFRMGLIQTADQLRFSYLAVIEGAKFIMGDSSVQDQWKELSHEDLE
As to the kind of experiment: PTP1B biochemical inhibition assay (DiFMUP phosphatase fluorescence intensity assay). Conditions: powder-confirmed hits, 10-pt dose-response, 0.5 nM PTP1B, DiFMUP 25 μM, 20 min preincubation, pH 6.0, RT. The procedure:
One of the major issues in prior STEP HTS campaigns using phosphatase activity as a readout was the lack of potent chemical matter with relative selectivity for STEP (PubChem AID: 588,619 and our unpublished data). […] For these assays, we expressed and purified the catalytic domain of PTP1B (1-300) using an approach similar to the one described for STEP46 above. The enzymatic activity of the highly pure PTP1B was assessed by adapting the DiFMUP phosphatase assay. Similar to STEP46, a concentration of 0.5 nM PTP1B was found optimal for kinetic experiments. […] Using DiFMUP at that concentration, we tested all 10 powder-confirmed hits in 10-pt dose-response inhibition assays against PTP1B.
as §1

Experiment [2] has as its target T2, Human PTP1B catalytic domain (1-300). As to the kind of experiment: PTP1B Michaelis-Menten kinetic assay with DiFMUP. Format: biochemical. The conditions noted are these: PTP1B 0.5 nM.
Description: Human STEP46 and PTP1B activity was measured at room temperature (RT) in a 384-well plate format standard phosphatase fluorescence intensity assay using DiFMUP as a substrate and a total reaction volume of 25 μL. PTP working solutions were prepared at a 0.625 nM concentration (for a final concentration of 0.5 nM) in buffer containing 50 mM Bis-Tris pH 6.0, 50 mM NaCl, 5 mM DTT, and 0.01% Tween® 20. DiFMUP working solutions at 5X final concentration were prepared in 50 mM Bis-Tris pH 6.0, 50 mM NaCl, and 0.01% Tween 20. […] Fluorescence intensity was measured in kinetic mode (every minute for 10 min) using a Tecan Spark® Multimode Microplate Reader (Tecan, Groedig, Austria) with an excitation wavelength of 360 nm and an emission wavelength of 460 nm. The initial rates were determined from the linear progress curves of the PTP reaction. […] Michaelis–Menten plots were generated for each PTP construct, and Michaelis–Menten constants (Km) were calculated using the program GraphPad Prism (version 8, GraphPad Software, Inc., San Diego, CA, USA).
A further experiment has as its system AD mice. Details: method as in PMID 25093460. The conditions noted are these: cited from earlier work.

For orientation: IC50 means the concentration needed to halve the response being measured. The low end stands for inhibition by little substance, the high end for a need for much substance. As a reminder, the Km is the substrate concentration at which the rate is half of its maximum.

For `NC(=O)c1cccc(NC(=O)c2cc3c(ccc4ccccc43)o2)c1` [SBI-2136], the IC50 amounted to 5.3 µM against full-length human STEP46 and 14 µM in experiment [1].
As for `Cc1cc(=O)oc2c(F)c(OP(=O)(O)O)c(F)cc12` [DiFMUP, 6,8-difluoro-4-methylumbelliferyl phosphate], the Km in experiment [2] is 25 µM.
As to `Nc1ccc(NCC2CCCO2)c(C(=O)O)c1` (stereo not shown) [SBI-8929], the half-maximal inhibitory concentration (IC50) against full-length human STEP46 amounted to 33 µM; in experiment [1], 20 µM.
The matching figures for `O=C(CSc1c[nH]nn1)Nc1ccc(/C=C/c2ccccc2)cc1` [SBI-1359]: 7 µM and 28 µM.
On the same counts, the results for `N#Cc1sc2nc(-c3ccc4c(c3)OCO4)ccc2c1N` [SBI-7297] are 32 µM and more than 100 µM.
Take `Cc1c2c(=O)n(-c3nc4ccccc4s3)[nH]c2cc(=O)n1CCC(C)C` [SBI-0743]: the IC50 is 5.5 µM against full-length human STEP46 and 22 µM in experiment [1].
Turning to `Nc1oc2cc(O)ccc2c(=O)c1-c1nc2ccccc2s1` [SBI-6066], the figures for the IC50 (at full-length human STEP46; in experiment [1]) were 5 µM and more than 100 µM, respectively.
The matching figures for `Cc1ccc(Nc2nc(CSc3nnnn3-c3ccccc3)cc(=O)[nH]2)cc1` [SBI-0738]: 5.7 µM and 6.1 µM.
The matching figures for `COc1ccccc1-c1ccc2c(N)c(C#N)sc2n1` [SBI-8771]: 16 µM and 79 µM.
The matching figures for `O=C(Cc1ccc(Cl)cc1)Nc1ccc(C(=O)Nc2cccc(O)c2)cc1` [SBI-6727]: 18 µM and 57 µM.
Turning to `Nc1cc(C(F)(F)F)cc2c1SSSSS2` [TC-2153], in the experiment on AD mice, the “Effect on cognitive deficits in AD mice” value is on record as “effectively reversed cognitive deficits”.
Turning to `Cc1cc(C)cc(C(=O)Nc2ccc(-c3nc4ccccc4[nH]3)cc2)c1` [SBI-6083], the concentration for half-maximal inhibition (IC50) is 5.4 µM against full-length human STEP46 and more than 100 µM in experiment [1].
